Data published in patent publication US11123434B2, “Drug delivery device and its method of manufacture” (City University of Hong Kong, priority 2017, dated 2021).

Assay: Drug release from loaded sponges at 37° C. in deionized water
Assay type: physicochemical
Conditions: comparison among model drugs MB, ORO, TH
Description: To maintain constant therapeutic levels for prolonged periods and to reduce the total dose of administration, the ability of a carrier to prolong drug release is required.

**Q.** Which drug release sustainability does the source give for CN(C)[C@@H]1C(=O)C(C(N)=O)=C(O)[C@@]2(O)C(=O)C3=C(O)c4c(O)cccc4[C@@](C)(O)[C@H]3C[C@@H]12.Cl [TH] here?
**A.** The drug release sustainability was “more sustainable as compared to that of ORO”.
